Laboratory results: PubChem BioAssay AID1259427 (Fisher Drug Discovery Resource Center, 2018)
Several values for one entry are separate records, joined by “and”; a condition that tells them apart may be missing. Identical values can stand only once. Activity calls are given as the source filed them.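 The calls were made as follows: active = EC50 at or below a set limit, with no effect in the paired counter-screen assay; inactive = the rest.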

Biological target: Aedes aegypti neuropeptide Y-like receptor 7 (NPYLR7)
Assay: NPYLR7 activation potency in cells – cell-based, Aedes aegypti, hit validation, mosquito biting behavior, confirmation (AID 1259427);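 also: potency of agonists that activate the receptor and raise the calcium signal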
Conditions: HEK293T NPYLR7/Galpha15/GCaMP6s, calcium fluorescence

| Structure (SMILES) | EC50 |
| --- | --- |
| CC(C)NC[C@H](O)c1ccc(O)c(O)c1 | < 39 nM (inactive) and > 20 µM (inactive) |
| CCn1c(O)c(C=Nc2c(C#N)c(C)c(C)n2C2CCCCC2)c(=O)n(CC)c1=S | inactive |
| CCOC(=O)c1c(-c2ccccc2)csc1N=Cc1nc(-c2ccccc2)oc1O | > 20 µM (inactive) |
| O=C(O)c1ccccc1-c1c2cc(Br)c(=O)cc-2oc2[c]([Hg])c(O)c(Br)cc12 | < 0.039 µM (inactive) |
| Cc1c(NC(=O)COC(=O)C(C#N)=Cc2ccc(N(C)C)cc2)c(=O)n(-c2ccccc2)n1C | > 20 µM (inactive) |
| Cc1ccc(CN(C(=O)c2cc3cc(Cl)ccc3[nH]2)C(C)C)o1 | > 20 µM (inactive) |
| Cc1cc(O)c(CN2CCCC2)c2c1C(=O)/C(=C/c1cc3ccccc3o1)O2 | > 20 µM (inactive) |
| N#CC(C#N)=C1C=C2C=C(N3CCCCCC3)CCC2CC1 (stereo not given) | < 0.039 µM (inactive) |
| COc1ccc(OC)c(CCNc2nc3cnc(-c4cccc5ccccc45)cc3n2C)c1 | 12.4 µM |
| CCCC1CCC(C(=O)Nc2nnc(SCC)s2)CC1 (stereo not given) | > 20 µM (inactive) |
| CSc1nnc2c(n1)OC(c1ccc(OC(=O)c3ccc(Br)cc3)cc1)Nc1ccccc1-2 (stereo not given) | > 20 µM (inactive) |
| Cc1cc2nc3c(=O)[nH]c(=O)nc-3n(CC(O)C(O)C(O)CO)c2cc1C (stereo not given) | < 0.039 µM (inactive) |
| COc1ccc(-c2cccc(-c3ccc(NC(=O)c4oc5ccccc5c4C)cc3)n2)cc1 | > 20 µM (inactive) |
| CCOC(=O)C1CCN(C(=O)CC(c2cccc(C(F)(F)F)c2)c2c[nH]c3c(CC)cccc23)CC1 (stereo not given) | > 20 µM (inactive) |
| COc1cc(C=C2N=C(c3ccc4c(c3)OCO4)OC2=O)cc2c1OCCO2 | > 20 µM (inactive) |
| CN(Cc1ccccc1)c1cc(Oc2cccc(Cl)c2)ncn1 | > 20 µM (inactive) |
| C(=Cc1ccccc1)C=NNc1ncnc2ccccc12 | > 20 µM (inactive) |
| COc1cccc(CN2C(=O)c3cccc(N)c3C2=O)c1 | > 20 µM (inactive) |
| COc1ccc(C(=O)C=Cc2cc(Br)c(O)c(OC)c2)cc1F | inactive |
| CC[C@@]1(O)C(=O)OCc2c1cc1n(c2=O)Cc2cc3c(CN(C)C)c(O)ccc3nc2-1 | inactive |
| CNCC(O)c1ccc(O)c(O)c1 (stereo not given) | inactive |
| COc1ccc(OC)c(CCNc2nc3cnc(-c4cc(OC)c(OC)c(OC)c4)cc3n2C)c1 | 12.7 µM |
| Cn1c(C(C#N)=Cc2c(F)c(F)c(F)c(F)c2F)nc2ccccc21 | < 0.039 µM (inactive) |
| CCN(CC)c1ccc(/C=C2\SC(=S)N(CCS(=O)(=O)O)C2=O)cc1 | inactive |
| CCC1CN(C(=O)c2cc(C(C)C)on2)CCC(=O)N1Cc1ccccc1 (stereo not given) | > 20 µM (inactive) |
| N#C/C(=C\c1ccc(O)c(O)c1)C(=O)NCCCc1ccccc1 | 17.4 µM |
| Cc1nn(C)c(Cl)c1/C=C1/CCCc2c1nc1ccccc1c2C(=O)O | 19.2 µM |
| Nc1nc(Cl)nc2c1ncn2[C@@H]1O[C@H](COP(=O)(O)OP(=O)(O)OP(=O)(O)O)[C@H](O)C1O (stereo not given in full) | < 0.039 µM (inactive) |

| Structure (SMILES) | EC50 |
| --- | --- |
| O=C(O)c1csc(CSc2nnc(Cc3ccccc3)n2-c2cccc(C(F)(F)F)c2)n1 | > 20 µM (inactive) |
| CCCc1[nH]n(-c2ccc(Cl)cc2)c(=O)c1/C=C1\NC(=O)N(Cc2ccc(C)cc2)C1=O | > 20 µM (inactive) |
| CC1(C)CC(=O)C2C(=Nc3[nH]c(=S)[nH]c(=O)c3C2c2ccc3c(c2)OCO3)C1 (stereo not given) | > 20 µM (inactive) |
| COc1cc(C=CC(=O)c2ccc3c(c2)OCCO3)cc(Br)c1O | inactive |
| COc1cc(C=C2SC(=S)NC2=O)cc(Br)c1O | inactive |
| COc1cc(OC)cc(C(=O)N2CCN(C(C(=O)Nc3ccc(NC(C)=O)cc3)C3CCCC3)CC2)c1 (stereo not given) | > 20 µM (inactive) |
| CC1=NCCc2c1[nH]c1cc(O)ccc21 | inactive |
| CN1C(=S)N(CCCN2CCOCC2)C(=O)/C1=C/c1ccc(N(C)C)cc1 | > 20 µM (inactive) |
| CN1C(=S)N(C2CCCCC2)C(=O)/C1=C\c1ccc2c(c1)OCO2 | > 20 µM (inactive) |
| CC1CC2(C)Oc3ccccc3C3OCC1(CO)C(C)C32 (stereo not given) | > 20 µM (inactive) |
| O=[N+]([O-])c1c[n+]([O-])n(-c2cccc(Cl)c2)n1 | > 20 µM (inactive) |
| CC1C(=O)c2cccc3c(=O)n(-c4ccccc4)c(O)c(c23)C1=O (stereo not given) | 5.77 µM |
| CCCCN(CC(=O)Nc1c(-c2ccccc2)c(C)nn1-c1ccccc1C)S(=O)(=O)c1ccc(F)cc1 | > 20 µM (inactive) |
| CCCCCn1c(=O)c2c(nc3n2CCN3c2cc(C)cc(C)c2)n(C)c1=O | > 20 µM (inactive) |
| Cc1cccc(Oc2nc3ccccn3c(=O)c2/C=C(\C#N)c2nc3ccccc3s2)c1 | > 20 µM (inactive) |
| Cc1ccc(Nc2nc(Nc3cccc(F)c3)nc3nccnc23)c(C)c1 | > 20 µM (inactive) |
| Cc1ccc2nc(Cn3cnc4c(Cl)cc(Cl)cc4c3=O)cc(=O)n2c1 | > 20 µM (inactive) |
| CN(C)c1ccc(/C=C2/SC(=S)N(CC(=O)O)C2=O)cc1Br | inactive |
| CCN1CCN(C2=CC3=CC(=C(C#N)C#N)CCC3CC2)CC1 (stereo not given) | < 0.039 µM (inactive) |
| COc1ccc(CCN2COc3ccc4c(c3C2)O/C(=C\c2cccnc2)C4=O)cc1 | > 20 µM (inactive) |
| O=c1cc(C(F)(F)F)c2ccc(O)cc2o1 | inactive |
| CC[n+]1c(/C=C/C=C2/N(C)c3ccccc3C2(C)C)sc2ccccc21 | > 20 µM (inactive) |
| COCCn1c(C)cn2c3c(=O)n(Cc4ccc(Cl)cc4)c(=O)n(C)c3nc12 | > 20 µM (inactive) |
| Cc1ccc(Cl)c(Oc2cc(N3CCN(C(=O)c4ccc(Cl)c(Cl)c4)CC3)ncn2)c1 | > 20 µM (inactive) |
| O=C1c2ccccc2C(=O)C1c1ccnc2ccccc12 | > 20 µM (inactive) |
| Clc1cccc2ccc(CN3CCn4cncc4C3)nc12 | > 20 µM (inactive) |
| N#Cc1cccc(C(=O)N2CCN(C(c3ccccc3)c3ccc(Br)cc3)CC2)c1 (stereo not given) | > 20 µM (inactive) |
